# Laboratory results: patent US6677350B1, “Beta-fluoroethyl thiourea compounds and use” (priority 1999, dated 2004)
# Like-named read-outs stand apart in the source and are kept apart here.
# System: M. tuberculosis H37Rv (ATCC 27294)
# Experiment: In vitro anti-tuberculosis screening, BACTEC 460 radiometric system, percent inhibition of growth
# Format: cell-based, Mycobacterium tuberculosis
# Conditions: for inhibition at 12.5 µg/mL: Mycobacterium tuberculosis
# [1] = Mtb H37Rv, 12.5 μg/mL, BACTEC 12B medium
# [2] = Mtb H37Rv, drug concentration 12.5 μg/mL, read-out: inhibition of the growth of Mtb
# [3] = Mtb H37Rv, drug concentration 12.5 μg/mL
molecule,measurement,setting,value
O=C1CC(c2ccccc2)Oc2ccc(Br)cc21 (stereo not drawn) [Compound 142],Activity % Inhibition at 12.5 μg/mL (flavanones),[1],8%
COc1cc(OC)c2c(c1)OC(c1cc(OC)c(OC)c(OC)c1)CC2=O (stereo not drawn) [Compound 144],Activity % Inhibition at 12.5 μg/mL (flavanones),[1],0%
O=c1cc(-c2ccccc2)oc2c(I)cccc12 [Compound 114],anti-TB activity in words,"Mtb H37Rv, 12.5 μg/mL",weakly active or inactive
same,Activity % Inhibition at 12.5 μg/mL (flavones),[1],5%
COc1ccc(/C=C/C(=O)c2ccc(OC)cc2O)cc1 [Compound 9],Activity % inhibition at 12.5 μg/mL (chalcones),[1],32%
"O=C(/C=C/c1cccc(I)c1)c1cccc(Br)c1O [Compound 51, 3′-bromo-2′-hydroxy-3-iodochalcone]",inhibition at 12.5 µg/mL,[2],0%
"COc1ccc(-c2oc3cc(OC)cc(OC)c3c(=O)c2-c2c(-c3ccc(OC)cc3)oc3cc(OC)cc(OC)c3c2=O)cc1 [Compound 159, 3-3″-Biapigenin hexamethylether]",anti-TB activity in words,"Mtb H37Rv, 12.5 μg/mL",completely devoid of activity
same,Activity % Inhibition at 12.5 μg/mL (biflavonoids),[1],0%
Nc1cccc(C(=O)/C=C/c2ccccc2I)c1 [Compound 41],Activity % inhibition at 12.5 μg/mL (chalcones),[1],88%
same,inhibition of the growth of Mtb,[3],88%
COc1ccc2c(=O)cc(-c3ccccc3)oc2c1 [Compound 117],Activity % Inhibition at 12.5 μg/mL (flavones),[1],0%
COc1ccc(-c2oc3c(I)cccc3c(=O)c2O)cc1 [Compound 113],Activity % Inhibition at 12.5 μg/mL (flavones),[1],6%
3′′′-Nitro-C3-O-C4′′′′--Biflavone [Compound 154],Activity % Inhibition at 12.5 μg/mL (biflavonoids),[1],61%
O=C(/C=C/c1ccccc1)c1cccc2ccccc12 [Compound 61],Activity % inhibition at 12.5 μg/mL (chalcone-like compounds),[1],37%
"CC(=O)Oc1ccc([C@@H]2CC(=O)c3c(cc(OC(C)=O)c(-c4c(OC(C)=O)cc(OC(C)=O)c5c4O[C@H](c4ccc(OC(C)=O)cc4)CC5=O)c3OC(C)=O)O2)cc1 [Compound 173, Rhusflavanone hexaacetate]",Activity % Inhibition at 12.5 μg/mL (biflavonoids),[1],0%
O=C(/C=C/c1ccncc1)c1ccco1 [Compound 75],Activity % inhibition at 12.5 μg/mL (chalcone-like compounds),[1],0%
COc1ccc(/C=C/C(=O)c2c(O)cccc2OC)cc1 [Compound 2],Activity % inhibition at 12.5 μg/mL (chalcones),[1],75%
"CC(=O)OC[C@H]1O[C@@H](Oc2cc(OC(C)=O)c3c(=O)cc(-c4ccc(OC(C)=O)cc4)oc3c2C2C(=O)c3c(OC(C)=O)cc(OC(C)=O)cc3OC2c2ccc(OC(C)=O)cc2)[C@H](OC(C)=O)[C@@H](OC(C)=O)[C@@H]1OC(C)=O (stereo partly drawn) [Compound 177, Spicataside acetate]",Activity % Inhibition at 12.5 μg/mL (biflavonoids),[1],0%
"O=C(/C=C/c1ccccc1)c1ccccc1O [Compound 5, 2′-hydroxychalcone]",inhibition at 12.5 µg/mL,"read-out: Activity % inhibition at 12.5 μg/mL (chalcones), Mtb H37Rv, 12.5 μg/mL, BACTEC 12B medium",61%
same,inhibition at 12.5 µg/mL,"read-out: inhibition of the growth of Mtb, Mtb H37Rv, drug concentration 12.5 μg/mL",61%
COc1ccc(-c2oc3ccc(F)cc3c(=O)c2O)cc1 [Compound 94],Activity % Inhibition at 12.5 μg/mL (flavones),[1],29%
CN(C)c1ccc(/C=C/C(=O)c2ccncc2)cc1 [Compound 68],Activity % inhibition at 12.5 μg/mL (chalcone-like compounds),[1],1%
"O=c1cc(-c2ccccc2-c2cccc3c(=O)cc(-c4ccccc4)oc23)oc2ccccc12 [Compound 161, 8-2′′′-Biflavone]",Activity % Inhibition at 12.5 μg/mL (biflavonoids),[1],0%
O=c1cc(-c2ccccc2)oc2ccc(F)cc12 [Compound 112],anti-TB activity in words,"Mtb H37Rv, 12.5 μg/mL",weakly active or inactive
same,Activity % Inhibition at 12.5 μg/mL (flavones),[1],7%
O=C(/C=C/c1ccc(Cl)cc1)c1ccccc1O [Compound 27],Activity % inhibition at 12.5 μg/mL (chalcones),[1],67%
same,inhibition of the growth of Mtb,[3],67%
COc1ccc(C=CC(=O)c2ccc(F)cc2O)cc1 [Compound 22],Activity % inhibition at 12.5 μg/mL (chalcones),[1],63%
"O=c1cc(-c2cccc(-c3ccc4c(=O)cc(-c5ccccc5)oc4c3)c2)oc2ccccc12 [Compound 162, 7-3′′′-Biflavone]",Activity % Inhibition at 12.5 μg/mL (biflavonoids),[1],0%
"O=C1CC(c2ccccc2)Oc2cc(Br)ccc21 (stereo not drawn) [Compound 136, 7-bromo-flavanone]",inhibition at 12.5 µg/mL,"Mtb H37Rv, 12.5 μg/mL, BACTEC 12B medium, read-out: Activity % Inhibition at 12.5 μg/mL (flavanones)",53%
same,inhibition at 12.5 µg/mL,[2],53%
"COc1ccc2c(c1)OC(c1ccccc1)C(C1C(=O)c3ccc(OC)cc3OC1c1ccccc1)C2=O (stereo not drawn) [Compound 160, 3-3″-Bi-(7-methoxyflavanone)]",Activity % Inhibition at 12.5 μg/mL (biflavonoids),[1],0%
O=C(/C=C/c1cc2ccccc2[nH]1)c1ccncc1 [Compound 64],Activity % inhibition at 12.5 μg/mL (chalcone-like compounds),[1],12%
COc1ccc(/C=C/C(=O)c2cc(I)ccc2O)cc1 [Compound 48],Activity % inhibition at 12.5 μg/mL (chalcones),[1],0%
same,inhibition of the growth of Mtb,[3],0%
O=c1cc(-c2ccccc2)oc2cc(Cl)ccc12 [Compound 122],anti-TB activity in words,"Mtb H37Rv, 12.5 μg/mL",weakly active or inactive
same,Activity % Inhibition at 12.5 μg/mL (flavones),[1],0%
COc1ccc(-c2oc3cc(I)ccc3c(=O)c2O)cc1 [Compound 91],Activity % Inhibition at 12.5 μg/mL (flavones),[1],43%
O=c1cc(-c2ccccc2)oc2ccc(I)cc12 [Compound 124],anti-TB activity in words,"Mtb H37Rv, 12.5 μg/mL",weakly active or inactive
same,Activity % Inhibition at 12.5 μg/mL (flavones),[1],0%
O=C(/C=C/c1ccccc1)c1cc(Cl)ccc1O [Compound 26],Activity % inhibition at 12.5 μg/mL (chalcones),[1],67%
same,inhibition of the growth of Mtb,[3],67%
